ChEMBL document CHEMBL3885861, “Open TG-GATES”

Species: Rattus norvegicus
Assay: Open TG-GATES - Regimen: Daily Repeat
Type: toxicity, organism-based, Sprague-Dawley
Design: regimen Daily Repeat, gender Male, age 6 weeks
Conditions: in vivo, po, route gavage; for gamma-GTP / ALP / ALT / AST / BUN / CRE / Ca / DBIL / GLC / IP / K / LDH / Na / PL / RALB / TBIL / TC / TG / TP: tissue Plasma; for APTT / Bas / Eos / Fbg / Hb / Ht / Lym / MCH / MCHC / MCV / Mono / Neu / PT / Plat / RBC / Ret / WBC: tissue Blood; for KIDNEY_L / KIDNEY_R / KIDNEY_TOTAL: tissue Kidney; for LIVER: tissue Liver
[1] = 30 mg/kg, 72 h, dose level Middle, time 3 day
[2] = 30 mg/kg, […], dose level Middle, time 7 day
[3] = 30 mg/kg, […], dose level Middle, time 14 day
[4] = 30 mg/kg, […], dose level Middle, time 28 day

For CSc1ccc2c(c1)N(CCC1CCCCN1C)c1ccccc1S2 (stereo not drawn) [THIORIDAZINE], the gamma-GTP (10 mg/kg, […], dose level Low, time 28 day) was 1.4 IU/L, the TERMINAL_BW [1] was 234.2 g and the APTT [1] was 15.8 s. It also gave a Bas [1] of 0%, an Eos [1] of 1% and a Fbg [1] of 219.8 mg/dL. For the same compound, the Hb [1] was 14.1 g/dL, the Ht [1] was 42.2% and the Lym [1] was 79.6%. It also gave an MCH [1] of 21.7 pg, an MCHC [1] of 33.4% and an MCV [1] of 64.9 fL. For the same compound, the Mono [1] was 7%, the Neu [1] was 12.6% and the PT [1] was 11.9 s. The Plat [1] was 110.7 x10_4/uL, the RBC [1] was 651 x10_4/ul and the Ret [1] was 8%. It also gave a WBC [1] of 122.3 x10_2/uL, a KIDNEY_L [1] of 1 g and a KIDNEY_R [1] of 1.1 g. The KIDNEY_TOTAL [1] was 2.1 g, the LIVER [1] was 12.3 g and the ALP [1] was 1002.8 IU/L. The ALT [1] was 44 IU/L, the AST [1] was 66.2 IU/L and the BUN [1] was 19 mg/dL. It also gave a CRE [1] of 0.5 mg/dL, a Ca [1] of 11.3 mg/dL and a DBIL [1] of 0.012 mg/dL. It also gave a GLC [1] of 188 mg/dL, an IP [1] of 9.3 mg/dL and a K [1] of 4.9 meq/L. It also gave an LDH [1] of 88.6 IU/L, a Na [1] of 139 meq/L and a PL [1] of 176.2 mg/dL. For the same compound, the RALB [1] was 4.1 g/dL, the TBIL [1] was 0.3 mg/dL and the TC [1] was 92 mg/dL. The TG [1] was 105.6 mg/dL, the TP [1] was 6 g/dL and the gamma-GTP [1] was 1.6 IU/L. The TERMINAL_BW [2] was 271.1 g, the TERMINAL_BW [3] was 301.4 g and the TERMINAL_BW [4] was 394 g. For the same compound, the APTT [2] was 15.4 s, the Bas [2] was 0% and the Eos [2] was 0.6%. The Fbg [2] was 235.6 mg/dL, the Hb [2] was 14.9 g/dL and the Ht [2] was 44.8%. The Lym [2] was 82.4%, the MCH [2] was 21.1 pg and the MCHC [2] was 33.2%. It also gave an MCV [2] of 63.6 fL, a Mono [2] of 5.8% and a Neu [2] of 11%. The PT [2] was 11.9 s, the RBC [2] was 705.6 x10_4/ul and the Ret [2] was 5.7%. The WBC [2] was 139.8 x10_2/uL, the APTT [3] was 16.2 s and the Bas [3] was 0%. It also gave an Eos [3] of 1%, a Fbg [3] of 224.8 mg/dL and a Hb [3] of 14.5 g/dL. For the same compound, the Ht [3] was 41%, the Lym [3] was 76.8% and the MCH [3] was 22.1 pg. It also gave an MCHC [3] of 37.1%, an MCV [3] of 59.7 fL and a Mono [3] of 8.4%. For the same compound, the Neu [3] was 14.4%, the PT [3] was 11.6 s and the Plat [3] was 101.3 x10_4/uL. For the same compound, the RBC [3] was 685.8 x10_4/ul, the Ret [3] was 3.8% and the WBC [3] was 148.2 x10_2/uL. The APTT [4] was 18 s, the Bas [4] was 0% and the Eos [4] was 1%. It also gave a Fbg [4] of 237.2 mg/dL, a Hb [4] of 15.5 g/dL and a Ht [4] of 46.8%. The Lym [4] was 83%, the MCH [4] was 19.6 pg and the MCHC [4] was 33.3%. For the same compound, the MCV [4] was 58.9 fL, the Mono [4] was 5.8% and the PT [4] was 11.9 s. The Plat [4] was 106.6 x10_4/uL, the RBC [4] was 795.4 x10_4/ul and the Ret [4] was 5.4%. It also gave a WBC [4] of 161 x10_2/uL, a KIDNEY_L [2] of 1.2 g and a KIDNEY_R [2] of 1.2 g. For the same compound, the KIDNEY_TOTAL [2] was 2.3 g, the KIDNEY_L [3] was 1.3 g and the KIDNEY_R [3] was 1.3 g. It also gave a KIDNEY_TOTAL [3] of 2.5 g, a KIDNEY_L [4] of 1.4 g and a KIDNEY_R [4] of 1.5 g. The KIDNEY_TOTAL [4] was 2.9 g, the LIVER [2] was 13.7 g and the LIVER [3] was 14 g. For the same compound, the LIVER [4] was 17.9 g, the ALP [2] was 818.4 IU/L and the ALT [2] was 37.4 IU/L. For the same compound, the AST [2] was 64.2 IU/L, the BUN [2] was 17.8 mg/dL and the CRE [2] was 0.5 mg/dL. For the same compound, the Ca [2] was 11.3 mg/dL, the DBIL [2] was 0.008 mg/dL and the GLC [2] was 183.8 mg/dL. It also gave an IP [2] of 8.6 mg/dL, a K [2] of 4.8 meq/L and an LDH [2] of 84.8 IU/L. It also gave a Na [2] of 138.6 meq/L, a PL [2] of 174 mg/dL and an RALB [2] of 4.1 g/dL. It also gave a TBIL [2] of 0.3 mg/dL, a TC [2] of 88.4 mg/dL and a TG [2] of 124.8 mg/dL. It also gave a TP [2] of 6.1 g/dL, a gamma-GTP [2] of 1.8 IU/L and an ALP [3] of 731.4 IU/L. The ALT [3] was 34.6 IU/L, the AST [3] was 65.8 IU/L and the BUN [3] was 16.4 mg/dL. For the same compound, the CRE [3] was 0.5 mg/dL, the Ca [3] was 10.5 mg/dL and the DBIL [3] was 0.02 mg/dL. For the same compound, the GLC [3] was 179.2 mg/dL, the IP [3] was 7.9 mg/dL and the K [3] was 4.8 meq/L. The LDH [3] was 103.2 IU/L, the Na [3] was 139.4 meq/L and the PL [3] was 159.4 mg/dL. It also gave an RALB [3] of 4.1 g/dL, a TBIL [3] of 0.3 mg/dL and a TC [3] of 77.6 mg/dL. It also gave a TG [3] of 139.8 mg/dL, a TP [3] of 6.2 g/dL and a gamma-GTP [3] of 1 IU/L. The ALP [4] was 625.2 IU/L, the ALT [4] was 39.8 IU/L and the AST [4] was 66.2 IU/L. The BUN [4] was 20.2 mg/dL, the CRE [4] was 0.6 mg/dL and the Ca [4] was 11 mg/dL. The DBIL [4] was 0.002 mg/dL, the GLC [4] was 183.2 mg/dL and the IP [4] was 7.3 mg/dL. The K [4] was 4.2 meq/L, the LDH [4] was 152.2 IU/L and the Na [4] was 140.2 meq/L. For the same compound, the PL [4] was 159.4 mg/dL, the RALB [4] was 4.2 g/dL and the TBIL [4] was 0.3 mg/dL. For the same compound, the TC [4] was 77.4 mg/dL, the TG [4] was 122.6 mg/dL and the TP [4] was 6.4 g/dL. The gamma-GTP [4] was 1.6 IU/L.
